# Read-outs that look alike come from different tables or passages of the source.
# What was measured:
# HIV-1SF162 virus strain [1] = test: Inhibition activity on TZM-bl cells infected with HIV-1SF162; details: for EC50: Human immunodeficiency virus 1, TZM-bl; for therapeutic index (TI): TZM-bl cells infected with HIV-1SF162; for cytotoxicity in vitro and therapeutic index in words, versus positive control compound: TZM-bl cells infected with HIV-1SF162, conclusion from Table 3
# HIV-1Ba-L virus strain [2] = test: Inhibition of viral replication in HOS-CD4-CCR5 cells infected with HIV-1Ba-L; format: cell-based
# Description: (§1) On the day before the test, 1×10^5/ml of HOS-CD4-CCR5 cells were inoculated in 96-well plates with 100 μl for each well. The compound to be tested was subject to 5-fold dilution in 96-well microtiter plate with DMEM complete medium (containing 10% FBS). The starting concentration was 1 μM and six dilutions were obtained. Triplicate wells were set for each dilution and each well contained 100 μl mixture. While wells not containing drugs were set as control. The supernatant was removed and 100 μl of drug was added and incubated for 2 h. Then 100 μl of HIV-1SF162 and HIV-1Ba-L were added to dilute supernatant. The cells were infected for 1 h, free virus was washed out and drug with the same final concentration was added. MVC was used as positive control. The cells were cultured at 37° C. with 5% CO2 for three days. The supernatant was collected, lysed and inactivated with 0.5% Triton X-100. The inhibition effect of drug on HIV-1 replication was detected using p24 antigen capture ELISA method.
# [3] = Toxicity test of compounds on PBMC cells (MTT); format: cell-based; details: human, PBMC cells (Table 4)
# Description: (§2) The compound to be tested was subject to 5-fold dilution in a 96-well microtiter plate with RPMI-1640 or DMEM complete medium (containing 10% FBS) (Six dilution) triplicate for each dilution and 100 μl for each well. While wells not containing drugs were set as control. Into each well was added 100 μl of 4×10^5/ml PM1, HOS-CD4-CCR5 cells or 100 μl of 5×10^6/ml PHA stimulated PBMC. The cells were cultured at 37° C. with 5% CO2 for three days (PBMC cells were cultured for seven days and 100 μl of fresh RPMI-1640 complete medium was supplemented on the third day). Cytotoxicity was tested with MTT assay. OD values were measured by ELx800 microplate reader. The detection wavelength was 570 nm, and the reference wavelength was 630 nm.
# HIV-1Ba-L virus strain [4] = test: Inhibition of viral replication in PBMC infected with HIV-1Ba-L; format: cell-based
# Description: (§3) The virus was titrated according to the modified method of Johnson & Byington. Briefly, the HIV-1 stock solution was subject to four-fold dilution in a 96-well plate (ten gradients) sextuplicate for each gradient, while setting six control-wells. Into each well was added 100 μl (5×10^6/ml) PHA-stimulated PBMC cells and final volume per well was 200 μl. The cells were cultured at 37° C. with 5% CO2. On the third day, 100 μl of fresh RPMI-1640 complete medium was supplemented. On the seventh day, the infected supernatant was collected and lysed with 0.5% Triton X100. The p24 antigen was detected by ELISA and TCID50 of virus was calculated according to Reed & Muench method (50% Tissue culture infection dose).
# (§4) The compound to be tested was subject to 5-fold dilution in 48-well plate with RPMI-1640 complete medium (containing 10% FBS). The starting concentration was 1 μM, six dilutions were obtained, and each well contained 200 μl mixture. While wells not containing drugs were set as control. Virus (MOI=0.01) was added to 5×10^6/ml of PBMC cells which have been stimulated by PHA for 72 h. After homogeneously mixed, the mixture was immediately added to 48-well plate containing diluted drug and each well was added with 200 μl of mixture. MVC was used as positive control. The cells were cultured at 37° C. with 5% CO2 for seven days (drug with the same concentration was added on the third day). The supernatant was collected, lysed and inactivated with 0.5% Triton X-100. The inhibition effect of drug on HIV-1 replication was detected using p24 antigen capture ELISA method.
# HIV-1SF162 virus strain [5] = test: Inhibition of viral replication in HOS-CD4-CCR5 cells infected with HIV-1SF162; format: cell-based
# Description: as §1
# HIV-1KM018 virus strain = test: Inhibition of viral replication in PBMC infected with HIV-1KM018; format: cell-based
# Description: as §3, with “On the third day, 100 μl of fresh RPMI-1640 complete medium was supplemented.” left out
# as §4, with “The” for “The compound to be tested was subject to 5-fold dilution in 48-well plate with RPMI-1640 complete medium (containing 10% FBS). The”, “Virus (MOI=0.01) was added to 5×10^6/ml of PBMC cells which have been stimulated by PHA for 72 h.” left out
# HIV-1SF162 virus strain [6] = test: Inhibition of viral replication in PBMC infected with HIV-1SF162; format: cell-based
# Description: as §3, with “On the third day, 100 μl of fresh RPMI-1640 complete medium was supplemented.” left out
# as §4, with “The” for “The compound to be tested was subject to 5-fold dilution in 48-well plate with RPMI-1640 complete medium (containing 10% FBS). The”, “Virus (MOI=0.01) was added to 5×10^6/ml of PBMC cells which have been stimulated by PHA for 72 h.” left out
# [7] = Cytotoxicity (CC50) in TZM-bl cells; format: cell-based; details: human; TZM-bl cells (Table 3); read-out: CC50
# [8] = Toxicity test of compounds on HOS-CD4-CCR5 cells (MTT); format: cell-based; details: human; HOS-CD4+-CCR5 cells (Table 7)
# Description: as §2
# in vivo = details: male, rat
# [9] = Human immunodeficiency virus 1, HOS-CD4-CCR5
# [10] = Human immunodeficiency virus 1, PBMC
# [11] = PBMC cells infected with HIV-1Ba-L
# [12] = PBMC cells infected with HIV-1KM018
Compound,EC50 (HIV-1SF162 virus strain [1]),therapeutic index (TI) (HIV-1SF162 virus strain [1]),"cytotoxicity in vitro and therapeutic index in words, versus positive control compound (HIV-1SF162 virus strain [1])",EC50 (HIV-1Ba-L virus strain [2]; [9]),CC50 at 7 days [3],EC50 (HIV-1Ba-L virus strain [4]; [10]),EC50 (HIV-1SF162 virus strain [5]; [9]),EC50 (HIV-1KM018 virus strain; [10]),EC50 (HIV-1SF162 virus strain [6]; [10]),CC50 [7],CC50 at 3 days [8],bioavailability (in vivo),AUC(0-t) (in vivo; 10 mg/kg),"half-life (in vivo; iv, 10 mg/kg)","AUC(0-inf) (in vivo; po, 20 mg/kg)","AUC(0-t) (in vivo; po, 20 mg/kg)","Cmax (in vivo; po, 20 mg/kg)","MRT (in vivo; po, 20 mg/kg)","Tmax (in vivo; po, 20 mg/kg)","half-life (in vivo; po, 20 mg/kg)",other results
"Cc1nnc(C(C)C)n1C1CC2CCC(C1)N2CC[C@H](NC(=O)C1CCC(F)(F)CC1)c1ccsc1 (stereo partly drawn) [Compound 22, 4,4-difluoro-N-[(1S)-3-[exo-3-(3-isopropyl-5-methyl-4H-1,2,4-triazol-4-yl)-8-azabicyclo[3.2.1]octane-8-yl]-1-(thiophen-3-yl)propyl]cyclohexane-1-carboxamide]",0.00153 µg/mL,>130718.95,better than positive control compound,0.00483 µg/mL,635 µg/mL,0.00513 µg/mL,0.00915 µg/mL,0.00533 µg/mL,0.00265 µg/mL,> 200 µg/mL,> 800 µg/mL,14.5%,4150 ng·h/mL,1 h,1260 ng·h/mL,1210 ng·h/mL,306 ng/mL,2.55 h,2 h,1.55 h,"AUC(0-inf) (in vivo; iv, 10 mg/kg): 4160 ng·h/mL; AUC(0-t) (in vivo; iv, 10 mg/kg): 4150 ng·h/mL; Cmax (in vivo; iv, 10 mg/kg): 3780 ng/mL; MRT (in vivo; iv, 10 mg/kg): 0.84 h; Tmax (in vivo; iv, 10 mg/kg): 0.25 h; bioavailability (in vivo; po, 20 mg/kg): 14.5%"
"Cc1nnc(C(C)C)n1C1CCN(CC[C@H](NC(=O)C2CCCC2)c2cccs2)CC1 [Compound 17, N-[(1S)-3-[4-(3-isopropyl-5-methyl-4H-1,2,4-triazol-4-yl)-piperidin-1-yl]-1-(thiophen-2-yl)propyl]cyclopentane-1-carboxamide]",0.0129 µg/mL,>15444.02,comparable with the positive control compound,,,,,,,> 200 µg/mL,439 µg/mL,,,2.22 h,,,,,,1.78 h,"EC50 (HIV-1Ba-L virus strain [2]; Human immunodeficiency virus 1, HOS-CD4+-CCR5 cells infected with HIV-1Ba-L, read-out: EC50): 0.0155 µg/mL; CC50 at 7 days ([3]; PHA stimulated PBMC): 439 µg/mL; EC50 (HIV-1Ba-L virus strain [4]; Human immunodeficiency virus 1, PBMC cells infected with HIV-1Ba-L, read-out: EC50): 0.848 µg/mL; therapeutic index (TI) (HIV-1Ba-L virus strain [4]; [11]): 438.6; therapeutic index (TI) (HIV-1SF162 virus strain [5]; HOS-CD4+-CCR5 cells infected with HIV-1SF162): 8632; EC50 (HIV-1SF162 virus strain [5]; Human immunodeficiency virus 1, HOS-CD4+-CCR5 cells infected with HIV-1SF162, read-out: EC50): 0.0509 µg/mL; EC50 (HIV-1KM018 virus strain; Human immunodeficiency virus 1, PBMC cells infected with HIV-1KM018, read-out: EC50): > 1 µg/mL; therapeutic index (TI) (HIV-1KM018 virus strain; [12]): <438.6; EC50 (HIV-1SF162 virus strain [6]; Human immunodeficiency virus 1, PBMC cells infected with HIV-1SF162, read-out: EC50): 0.0413 µg/mL; therapeutic index (TI) (HIV-1SF162 virus strain [6]; PBMC cells infected with HIV-1SF162): 10621"
"Cc1ccc([C@H](CCN2C3CCC2CC(n2c(C)nnc2C(C)C)C3)NC(=O)C2CCC(F)(F)CC2)s1 (stereo partly drawn) [Compound 29, 4,4-difluoro-N-[(1S)-3-[exo-3-(3-isopropyl-5-methyl-4H-1,2,4-triazol-4-yl)-8-azabicyclo[3.2.1]octane-8-yl]-1-(5-methylthiophen-2-yl)propyl]cyclohexane-1-carboxamide]",0.012 µg/mL,>16666.67,comparable with the positive control compound,0.0219 µg/mL,> 200 µg/mL,0.236 µg/mL,0.0186 µg/mL,0.103 µg/mL,0.00505 µg/mL,,> 200 µg/mL,40.1%,2330 ng·h/mL,,2790 ng·h/mL,1870 ng·h/mL,580 ng/mL,4.79 h,2 h,32.8 h,therapeutic index (TI) (HIV-1Ba-L virus strain [2]; HOS-CD4+-CCR5 cells infected with HIV-1Ba-L): >9144; therapeutic index (TI) (HIV-1Ba-L virus strain [4]; [11]): 818.3; therapeutic index (TI) (HIV-1KM018 virus strain; [12]): 1937.2; CC50 at 3 days [7]: > 200 µg/mL; AUC(0-inf) (in vivo; 10 mg/kg): 2330 ng·h/mL; Cmax (in vivo; 10 mg/kg): 1690 ng/mL; MRT (in vivo; 10 mg/kg): 2.29 h; Tmax (in vivo; 10 mg/kg): 0.25 h; half-life (in vivo; 10 mg/kg): 1.6 h

# — US10167299B2, “1-(3-aminopropyl) substituted cyclic amine compounds, preparation method therefor, and pharmaceutical compositions and uses thereof” (SHANGHAI INSTITUTE OF MATERIA MEDICA, CHINESE ACADEMY OF …, priority 2013, dated 2019)
